Results on 20 compounds are retold here after US20240025849A1 (MAX DELBRÜCK-CENTRUM FÜR MOLEKULARE MEDIZIN IN DER …, priority 2020, published 2024).

The test system of this assay is primary cultured neonatal microglia. The experiment in a line: LPS induced NO release, Griess assay, laboratory scaled setup.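 For active: compounds at or above the IC50 cutoff were called inactive.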 Format: cell-based, mouse. The conditions noted are these: for pIC50: Mus musculus, Microglia. Here is the method: Primary cultured neonatal microglia. For preparation of cultured neonatal microglia, P0-P3 mice were used. 10 brains were extracted, meninges and cerebellum were removed and put on ice with Hank's balanced salt solution (HBSS). The dissected brains were washed 3 times before adding 400 μL trypsin (0.1 mg/L) and DNAse (5 μg/L) in phosphate buffered saline (PBS). After 2 min of incubation with this solution, the reaction was blocked by adding plain medium. After removal of the medium, 1 mg DNAse was added and the cells were mechanically dissociated, with a Pasteur pipette followed by a glass pipette. The cells were centrifuged for 10 min at 129 g at 4° C. The supernatant was discarded. The pellet was resuspended in plain medium and plated (2.5 brains/flask) in Poly-L-Lysine coated flasks. The cells were washed after 2 days with PBS and incubated for another 7 days in plain medium. Afterwards the medium was replaced by plain medium with 33% L929 conditioned medium. After 2 days, cells were harvested by shaking them for 30 min at 150 rpm. The supernatant was centrifuged for 10 min at 129 g at 4° C. The cells were plated into a 96 well plate (100 000 cells/well, 200 μL medium per well). This procedure could be repeated 2 times with a 2 day interval.
Griess assay. Cells were seeded according to the protocols described above, after compounds and stimuli were added, 100 μl of supernatant was transferred into a new 96 well plate and 100 μl freshly mixed Griess reagent were added. Griess reagent was composed of reagent A (100 mg Naphthylethylene in 50 ml aqua dest.) and reagent B (1 g Sulfanilamide, […] H3PO4 (85%) in 44 mL aqua dest.) mixed 1:1. The solution was carefully mixed and the absorbance was determined in a microplate reader at a wavelength of 550 nm.
Dissolved sodium nitrite in plain medium served as a standard. Total amount of nitrite was calculated by a linear regression of the standard curve.
The activity of the compounds listed in column 1 of Table 1 as inhibitors of NO production was compared in murine primary cultured neonatal microglia as described above.
Background: The Griess reaction detects nitrite, a stable product of nitric oxide.

Where [1] appears, read: inhibitors of NO production, murine primary cultured neonatal microglia, read-out: IC50.
Setting [2] is: inhibitors of NO production, murine primary cultured neonatal microglia, read-out: activity class (IC50).
[3] abbreviates: inhibitors of NO production, murine primary cultured neonatal microglia.

pIC50: −log10 of the molar value. Read-outs that look alike come from different tables or passages of the source.

On to `COc1ccc(NC(=O)[C@@H](NC(=O)[C@@H]2CCCN2C(=O)CCC2CCCC2)c2ccc(OC)cc2)cc1` [Compound 5, (S)-1-(3-cyclopentylpropanoyl)-N—((S)-1-(4-methoxyphenyl)-2-((4-methoxyphenyl)amino)-2-oxoethyl)pyrrolidine-2-carboxamide], for which the pIC50 – broadly, the IC50 on a negative log10 scale, so that one unit is a factor of ten – reads like this: under setting [1], 7.78; under setting [2], over 7.30. Moreover, under setting [3], the active result is on record as “YES”.
The corresponding values for `COc1ccc(NC(=O)[C@@H](NC(=O)[C@@H]2CCCN2C(=O)CCC2CCCCC2)c2ccc(OC)cc2)cc1` [Compound 6, (S)-1-(3-cyclohexylpropanoyl)-N—((S)-1-(4-methoxyphenyl)-2-((4-methoxyphenyl)amino)-2-oxoethyl)pyrrolidine-2-carboxamide] are 7.69, over 7.30 and “YES”.
For `COc1ccc(NC(=O)[C@@H](NC(=O)[C@@H]2CCCN2C(=O)CCCC2CCCCC2)c2ccc(OC)cc2)cc1` [Compound 7], in that order: 7.35, over 7.30 and “YES”.
Regarding `COc1ccc(NC(=O)[C@@H](NC(=O)[C@@H]2CCCN2C(=O)CCC2CCCCC2)c2ccc(OCCOCCOCCOCCOCCOCCNC(=O)CCCC[C@@H]3SC[C@@H]4NC(=O)N[C@@H]43)cc2)cc1` [Compound 8, (S)-1-(3-cyclohexylpropanoyl)-N—((S)-2-((4-methoxyphenyl)amino)-2-oxo-1-(4-((19-oxo-23-((3aS,4S,6aR)-2-oxohexahydro-1H-thieno[3,4-d]imidazol-4-yl)-3,6,9,12,15-pentaoxa-18-azatricosyl)oxy)phenyl)ethyl)pyrrolidine-2-carboxamide], the pIC50 was 8.08 under setting [1] and over 7.30 under setting [2]. The active result under setting [3] is on record as “YES”.
Regarding `COc1ccc(NC(=O)[C@@H](NC(=O)[C@@H]2CCCN2C(=O)CCc2ccc(F)cc2)c2ccc(OC)cc2)cc1` [Compound 9, (S)-1-(3-(4-fluorophenyl)propanoyl)-N—((S)-1-(4-methoxyphenyl)-2-((4-methoxyphenyl)amino)-2-oxoethyl)pyrrolidine-2-carboxamide], the pIC50 under setting [1] is 7.26 and the pIC50 under setting [2] is over 7.00. Further, the active entry under setting [3] was “YES”.
For `COc1ccc([C@H](NC(=O)[C@@H]2CCCN2C(=O)OCc2ccccc2)C(=O)Nc2cc3n(n2)CCCC3)cc1` [Compound 10, benzyl(S)-2-(((S)-1-(4-methoxyphenyl)-2-oxo-2-((4,5,6,7-tetrahydropyrazolo[1,5-a]pyridin-2-yl)amino)ethyl)carbamoyl)pyrrolidine-1-carboxylate], in that order: 7.18, over 7.00 and “YES”.
For `COc1ccc(NC(=O)[C@@H](NC(=O)[C@@H]2CCCN2C(=O)COc2ccccc2)c2ccc(OC)cc2)cc1` [Compound 11, (S)—N—((S)-1-(4-methoxyphenyl)-2-((4-methoxyphenyl)amino)-2-oxoethyl)-1-(2-phenoxyacetyl)pyrrolidine-2-carboxamide], the pIC50 reads like this: under setting [1], 7.14; under setting [2], over 7.00. Further, the active entry under setting [3] is listed as “YES”.
Consider `COc1ccc(NC(=O)[C@@H](NC(=O)[C@@H]2CCCN2C(=O)Cc2ccccc2)c2ccc(OC)cc2)cc1` [Compound 12, (S)—N—((S)-1-(4-methoxyphenyl)-2-((4-methoxyphenyl)amino)-2-oxoethyl)-1-(2-phenylacetyl)pyrrolidine-2-carboxamide], for which the negative-log IC50 (pIC50) under setting [1] is 7.00 and the pIC50 under setting [2] was over 7.00. Under setting [3], the active entry is listed as “YES”.
On to `COc1ccc(NC(=O)[C@@H](NC(=O)[C@@H]2CCCN2C(=O)CCc2ccccc2)c2ccc(OC)cc2)cc1` [Compound 13], for which the pIC50 is 6.82 under setting [1] and over 6.70 under setting [2]. The active result under setting [3] is given as “YES”.
Turning to `COc1ccc(NC(=O)[C@@H](NC(=O)[C@@H]2CCCN2C(=O)CCc2ccoc2)c2ccc(OC)cc2)cc1` [Compound 14, (S)-1-(3-(furan-3-yl)propanoyl)-N—((S)-1-(4-methoxyphenyl)-2-((4-methoxyphenyl)amino)-2-oxoethyl)pyrrolidine-2-carboxamide], the pIC50 under setting [1] is 6.83 and the pIC50 under setting [2] was over 6.70. Under setting [3], the active entry was “YES”.
`COc1ccc(NC(=O)[C@@H](NC(=O)[C@@H]2CCCN2C(=O)CCC2CCOCC2)c2ccc(OC)cc2)cc1` [Compound 15, (S)—N—((S)-1-(4-methoxyphenyl)-2-((4-methoxyphenyl)amino)-2-oxoethyl)-1-(3-(tetrahydro-2H-pyran-4-yl)propanoyl)pyrrolidine-2-carboxamide]: the pIC50 under setting [1] was 6.93 and the pIC50 under setting [2] was over 6.70. Further, the active entry under setting [3] is listed as “YES”.
`COc1ccc(NC(=O)[C@@H](NC(=O)[C@@H]2CCCN2C(=O)CCc2cccs2)c2ccc(OC)cc2)cc1` [Compound 16, (S)—N—((S)-1-(4-methoxyphenyl)-2-((4-methoxyphenyl)amino)-2-oxoethyl)-1-(3-(thiophen-2-yl)propanoyl)pyrrolidine-2-carboxamide]: the negative-log IC50 (pIC50) under setting [1] is 6.91 and the pIC50 under setting [2] was over 6.70. Under setting [3], the active entry is listed as “YES”.
On to `COc1ccc(NC(=O)[C@@H](NC(=O)[C@@H]2CCCN2C(=O)OCc2ccccc2)c2ccccc2)cc1` [Compound 17, benzyl (S)-2-(((S)-2-((4-methoxyphenyl)amino)-2-oxo-1-phenylethyl)carbamoyl)pyrrolidine-1-carboxylate], for which the pIC50 is, setting by setting: under setting [1], 6.91; under setting [2], over 6.70. Also, the active result under setting [3] was “YES”.
With `COc1ccc(NC(=O)[C@@H](NC(=O)[C@@H]2CCCN2C(=O)OCc2ccccc2)c2ccc(OC)cc2)cc1` [Compound 18, (S)-benzyl-2-((S)—(4-methoxyphenylcarbamoyl)(4-methoxyphenyl)methylcarbamoyl)pyrrolidine-1-carboxylate], the “inhibitory effect in the NO release assay” value (FIG. 9) was “shows an inhibitory effect”. Also, the pIC50 is, setting by setting: (0.002 to 20 μM, FIG. 9, read-out: IC50, LPS induced NO production (stereoisomers)) 7.00; under setting [1], 6.97; under setting [2], over 6.70. Further, the active result under setting [3] is listed as “YES”.
`COc1ccc(NC(=O)[C@@H](NC(=O)[C@@H]2CCCN2C(=O)CC2CCCCC2)c2ccc(OC)cc2)cc1` [Compound 19, (S)-1-(2-cyclohexylacetyl)-N—((S)-1-(4-methoxyphenyl)-2-((4-methoxyphenyl)amino)-2-oxoethyl)pyrrolidine-2-carboxamide]: the pIC50 by setting is: under setting [1], 6.68; under setting [2], over 6.00. In addition, the active result under setting [3] is “YES”.
For `COc1ccc(NC(=O)[C@@H](NC(=O)[C@@H]2CCCN2C(=O)CCC(C)C)c2ccc(OC)cc2)cc1` [Compound 20, (S)—N—((S)-1-(4-methoxyphenyl)-2-((4-methoxyphenyl)amino)-2-oxoethyl)-1-(4-methylpentanoyl)pyrrolidine-2-carboxamide], in that order: 6.69, over 6.00 and “YES”.
The corresponding values for `COc1ccc(NC(=O)[C@@H](NC(=O)[C@@H]2CCCN2C(=O)CCc2cn(C)c3ccccc23)c2ccc(OC)cc2)cc1` [Compound 21, (S)—N—((S)-1-(4-methoxyphenyl)-2-((4-methoxyphenyl)amino)-2-oxoethyl)-1-(3-(1-methyl-1H-indol-3-yl)propanoyl)pyrrolidine-2-carboxamide] are 6.59, over 6.00 and “YES”.
For the compound `COc1ccc([C@H](NC(=O)[C@@H]2CCCN2C(=O)OCc2ccccc2)C(=O)Nc2ccc3c(c2)CCO3)cc1` [Compound 22, benzyl-(S)-2-(((S)-2-((2,3-dihydrobenzofuran-5-yl)amino)-1-(4-methoxyphenyl)-2-oxoethyl)carbamoyl)pyrrolidine-1-carboxylate], the pIC50 was 6.64 under setting [1] and over 6.00 under setting [2]. For the same compound, the active result under setting [3] is reported as “YES”.
On to `COc1ccc(NC(=O)[C@@H](NC(=O)[C@@H]2CCCN2C(=O)C2CCCCC2)c2ccc(OC)cc2)cc1` [Compound 23, (S)-1-(cyclohexanecarbonyl)-N—((S)-1-(4-methoxyphenyl)-2-((4-methoxyphenyl)amino)-2-oxoethyl)pyrrolidine-2-carboxamide], for which the pIC50 under setting [1] was 5.97 and the pIC50 under setting [2] was over 5.00. In addition, the active entry under setting [3] is reported as “YES”.
Regarding `COc1ccc(NC(=O)[C@@H](NC(=O)[C@@H]2CCCN2C(=O)c2ccccc2)c2ccc(OC)cc2)cc1` [Compound 24, (S)-1-benzoyl-N—((S)-1-(4-methoxyphenyl)-2-((4-methoxyphenyl)amino)-2-oxoethyl)pyrrolidine-2-carboxamide], the pIC50 is, setting by setting: under setting [1], 5.96; under setting [2], over 5.00. Under setting [3], the active entry is “YES”.
